From patent US20080319001A1, “Cancer Treatment Using Specific 3,6,9-Substituted Acridines” (priority 2005, published 2008)
Like-named read-outs stand apart in the source and are kept apart here.

What was measured:
[1] = LogP/D measurement (octanol/ISA water titration); assay type: physicochemical; details: for logD / logP: octanol/ISA (ionic strength adjusted) water; for logP / Measured LogPion: octanol/ISA water; for logP: read-out: Measured LogP
Procedure: The LogP values were measured by titration of solutions of the compound in Octanol/ISA (ionic strength adjusted) water mixtures on a Sirius GipKa instrument. Titrations in different ratios of Octanol to water enabled the calculation of the Log Pion values and therefore the LogD profile. Prediction of LogP values were made using ACD v8.07 and Syracuse KNOWWIN v1.67 software.

[2] = Metabolic stability, cytosol; assay type: in vitro ADME
[3] = Cytotoxicity / growth inhibition, MCF7; assay type: cell-based; details: human, MCF7 cells; read-out: Cytotoxic IC50 vs. MCF7
[4] = test system: G-quadruplex DNA (F21T oligonucleotide); assay: FRET DNA melting assay; assay type: binding; details: [conc]ΔTm=20 value
Procedure: The ability of the compounds to stabilise G-quadruplex DNA was investigated using a fluorescence resonance energy transfer (FRET) assay modified to be used as a high-throughput screen in a 96-well format. The labelled oligonucleotide F21T (5′-FAM-dGGG(TTAGGG)-3-TAMRA-3′) used as the FRET probe was diluted from stock to the correct concentration (400 nM) in a 50 mM potassium cacodylate buffer (pH 7.4) and then annealed by heating to 85° C. for 10 min., followed by cooling to room temperature in the heating block.
Compounds were stored as 10 mM stock solutions in DMSO; final solutions (at 2× concentration) were prepared using water or 1M HCl in the initial 1:10 dilution, after which 50 mM potassium cacodylate buffer (pH 7.4) was used in all subsequent steps. 96-well plates (MJ Research, Waltham, Mass.) were prepared by aliquoting 50 μl of the annealed DNA to each well, followed by […] of the compound solutions. Measurements were made on a DNA Engine Opticon (MJ Research) with excitation at 450-495 nm and detection at 515-545 nm. Fluorescence readings were taken at intervals of 0.5° C. over the range 30-100° C., with a constant temperature being maintained for 30 seconds prior to each reading to ensure a stable value. Final analysis of the data was carried out using a script written in the program Origin 7.0 (OriginLab Corp., Northampton, Mass.). […]

[5] = Cytotoxicity / growth inhibition, A549; assay type: cell-based; details: human, A549 cells; read-out: Cytotoxic IC50 vs. A549
HPLC solution stability = assay type: physicochemical
Procedure: Due to the generally low solubility of these compounds in 0.9% NaCl and 5% dextrose it was decided to mix these media with 50% Iso-propanol (IPA) to maintain full dissolution of the compound during these studies.
The remaining 5 mg/ml DMSO stock solution from the pKa determination was used for the stability studies. This solution had been stored in the fridge for several days before these stability studies. A solution with a concentration of 0.1 mg/ml was prepared for each experiment (50 fold dilution of DMSO stock). Stability trials were carried out at 4° C. (fridge) and 25° C. (on top of shaker at 25° C.) and at time points of 0, 1 and 7 days. In the case of 100% IPA data was collected at 0, 1 and 14 days after storage at 25° C. The HPLC purity method discussed in section 4.5 below was used for purity analysis. The largest and second largest peaks were added together due to separation of rotamers as discussed above.

tumour cell line = details: Incles et al, 2004; cited from earlier work
[6] = Log P (summary of biological and physicochemical properties, Table 4)
[7] = pH 6, read-out: Measured LogD pH 6
[8] = pH 6.5, read-out: Measured LogD pH 6.5
[9] = pH 7.4, read-out: Measured LogD pH 7.4
[10] = 0.9% NaCl mixed with 50% IPA, 0 days
[11] = 0.9% NaCl mixed with 50% IPA, 1 day, 4 ° C.
[12] = 0.9% NaCl mixed with 50% IPA, 1 day, 25 ° C.
[13] = 0.9% NaCl mixed with 50% IPA, 7 days, 4 ° C.
[14] = 0.9% NaCl mixed with 50% IPA, 7 days, 25 ° C.
[15] = 5% Dextrose mixed with 50% IPA, 0 days
[16] = 5% Dextrose mixed with 50% IPA, 1 day, 4 ° C.
[17] = 5% Dextrose mixed with 50% IPA, 1 day, 25 ° C.
[18] = 5% Dextrose mixed with 50% IPA, 7 days, 4 ° C.
[19] = 5% Dextrose mixed with 50% IPA, 7 days, 25 ° C.

## CN(C)c1ccc(Nc2c3ccc(NC(=O)CCN4CCCC4)cc3nc3cc(NC(=O)CCN4CCCC4)ccc23)cc1 [BSG01]
[1]; [7]
  logD: -2.56
[1]; [8]
  logD: -1.47
[1]; [9]
  logD: 0.74
[1]
  logP: 5.02
  Measured LogPion: 2.62
[2]; t = 30
  Cytosol (t = 30): 3.5
[2]; t = 60
  Cytosol (t = 60): 6.3
[3]
  IC50 at 96 h: 2530 nM
[4]
  FRET: 0.72 µM
[5]
  IC50 at 96 h: 2420 nM
HPLC solution stability; [10]
  Combined rotamer purity: 95.4
  Purity larger rotamer peak: 89.8
  Purity smaller rotamer peak: 5.7
HPLC solution stability; [11]
  Combined rotamer purity: 95.7
  Purity larger rotamer peak: 86.8
  Purity smaller rotamer peak: 8.9
HPLC solution stability; [12]
  Combined rotamer purity: 93.5
  Purity larger rotamer peak: 82.3
  Purity smaller rotamer peak: 11.2
HPLC solution stability; [13]
  Combined rotamer purity: 66.8
  Purity larger rotamer peak: 47.5
  Purity smaller rotamer peak: 19.4
HPLC solution stability; [14]
  Combined rotamer purity: 47.6
  Purity larger rotamer peak: 35.1
  Purity smaller rotamer peak: 12.5
HPLC solution stability; [15]
  Combined rotamer purity: 94.8
  Purity larger rotamer peak: 88.7
  Purity smaller rotamer peak: 6.1
HPLC solution stability; [16]
  Combined rotamer purity: 94.5
  Purity larger rotamer peak: 84.5
  Purity smaller rotamer peak: 10.00
HPLC solution stability; [17]
  Combined rotamer purity: 94.5
  Purity larger rotamer peak: 79.5
  Purity smaller rotamer peak: 15.0
HPLC solution stability; [18]
  Combined rotamer purity: 79.3
  Purity larger rotamer peak: 48.4
  Purity smaller rotamer peak: 30.9
HPLC solution stability; [19]
  Combined rotamer purity: 68.0
  Purity larger rotamer peak: 35.2%
  Purity smaller rotamer peak: 32.8
HPLC solution stability; 100% IPA, 0 days
  Combined rotamer purity: 91.9
  Purity larger rotamer peak: 86.4
  Purity smaller rotamer peak: 5.5
HPLC solution stability; 100% IPA, 1 day, 25 ° C.
  Combined rotamer purity: 93.2
  Purity larger rotamer peak: 87.2
  Purity smaller rotamer peak: 6.0
HPLC solution stability; 100% IPA, 14 days, 25 ° C.
  Combined rotamer purity: 94.0
  Purity larger rotamer peak: 82.8
  Purity smaller rotamer peak: 11.2
Tumour cell line
  end-to-end fusions in chromosomes: cause end-to-end fusions in chromosomes
[6]
  logP: 1.4

## O=C(CCN1CCCC1)Nc1ccc2c(NCc3ccc(F)c(F)c3)c3ccc(NC(=O)CCN4CCCC4)cc3nc2c1 [BSG17, N-(9-(3,4-Difluoro-benzylamino)-6-(3-pyrolidin-1-yl-propionamide)-acridin-3-yl)-3-pyrrolidin-1-yl-propionamide]
[1]; [7]
  logD: -0.15
[1]; [8]
  logD: 0.38
[1]; [9]
  logD: 1.58
[1]
  logP: 5.54
  Measured LogPion: 3.75
[3]
  IC50 at 96 h: 2260 nM
[4]
  FRET: 0.46 µM
[5]
  IC50 at 96 h: 2120 nM
HPLC solution stability; [10]
  Combined rotamer purity: 89.4
  Purity larger rotamer peak: 61.4
  Purity smaller rotamer peak: 28.0
HPLC solution stability; [11]
  Combined rotamer purity: 85.1
  Purity larger rotamer peak: 58.4
  Purity smaller rotamer peak: 26.8
HPLC solution stability; [12]
  Combined rotamer purity: 82.4
  Purity larger rotamer peak: 55.9
  Purity smaller rotamer peak: 26.5
HPLC solution stability; [13]
  Combined rotamer purity: 61.0
  Purity larger rotamer peak: 39.2
  Purity smaller rotamer peak: 21.8
HPLC solution stability; [14]
  Combined rotamer purity: 54.5
  Purity larger rotamer peak: 33.8
  Purity smaller rotamer peak: 20.8
HPLC solution stability; [15]
  Combined rotamer purity: 88.5
  Purity larger rotamer peak: 60.7
  Purity smaller rotamer peak: 27.8
HPLC solution stability; [16]
  Combined rotamer purity: 83.8
  Purity larger rotamer peak: 56.9
  Purity smaller rotamer peak: 26.9
HPLC solution stability; [17]
  Combined rotamer purity: 78.0
  Purity larger rotamer peak: 52.4
  Purity smaller rotamer peak: 25.6
HPLC solution stability; [18]
  Combined rotamer purity: 53.2
  Purity larger rotamer peak: 32.5
  Purity smaller rotamer peak: 20.7
HPLC solution stability; [19]
  Combined rotamer purity: 39.4
  Purity larger rotamer peak: 22.3
  Purity smaller rotamer peak: 17.1
HPLC solution stability; 100% IPA, 0 days
  Combined rotamer purity: 84.6
  Purity larger rotamer peak: 58.8
  Purity smaller rotamer peak: 25.8
HPLC solution stability; 100% IPA, 1 day, 25 ° C.
  Combined rotamer purity: 81.5
  Purity larger rotamer peak: 56.6
  Purity smaller rotamer peak: 25.0
HPLC solution stability; 100% IPA, 14 days, 25 ° C.
  Combined rotamer purity: 77.2
  Purity larger rotamer peak: 52.7
  Purity smaller rotamer peak: 24.5
[6]
  logP: 1.59
